Experimental data as given in patent publication US4048007A, “Method of removing solvent residues from aqueous paper pulps” (The Dow Chemical Company, priority 1976, dated 1977).
Where two headings read alike, the source gives them in different places.

Assays:
[1] = Air stripping of solvent from water (no fibers), time to strip 90% (Example 4); assay type: physicochemical; settings: 200 ml water, 5 g solvent, air stripped as in Example 2 (20° C., 2 cubic feet per minute)
Description: In a single tray apparatus similar to that in Example 1, air at 20° C. was passed at a rate of 2 cubic feet per minute through 200 ml. batches of various consistency aqueous Kraft pulps containing initially 1% by volume (2.0 ml, or […]) of dispersed perchloroethylene, C2 Cl4, which is very sparingly soluble in water (150 ppm). After 3 minutes, the residual weight of C2 Cl4 found was:
200 ml. batches of water (no fibers) containing 5 g. of solvent were stripped with air as in Example 2. The time required to strip 90% of the solvent was measured: […]

[2] = Henry's Law constant H of solvent in water; assay type: physicochemical; settings: for Henry's Law constant, H: Table I; for Value of H: Table II
Description: In a first or single stage, the incoming gas contains no solvent, yo is 0 and Em = y/y*. y is determined by analyzing a sample of the off-gas and y* can be calculated from the total vapor pressure P, the mole fraction (x) of the solvent in the liquid leaving the stage and H, the Henry's Law constant. That is, y*P (the partial pressure of the solvent) is equal to Hx, or y* = Hx/P.
For an aqueous solution of a sparingly soluble chlorinated hydrocarbon (for which Henry's law holds reasonably well over the full range of solubility up to saturation), H can be determined from the solvent solubility (c) in water and the vapor pressure (po) of the pure solvent, at a particular temperature; i.e., H = po /C. solubilities, vapor pressures and H values, at 20° C., are given below for three chlorinated hydrocarbon solvents.
The effect on H of operating at temperatures somewhat above or below […] is indicated in the following tabulation: […]

[3] = cited from earlier work; for Vapor Pressure of pure solvent: 20° C., Table I; for Vapor Pressure at 20° C.: Example 4
[4] = cited from earlier work
[5] = Dissolved solvent found in 0.5% Kraft pulp prepared with solvent-saturated water (Example 5); assay type: physicochemical; settings: 0.5% consistency Kraft pulp, water previously saturated with perchloroethylene
Description: A 0.5% consistency Kraft pulp suspension was prepared with water previously saturated with perchloroethylene.

SMILES | Time Required to strip out 90% [1] [s] | Henry's Law constant, H ([2]; 20° C.) [mm Hg/ppm] | Vapor Pressure of pure solvent [3] [mm Hg] | Vapor Pressure at 20° C. [3] [mm Hg] | Solubility in water ([4]; 20° C., Table I) | Value of H ([2]; 15° C.) [mm Hg/ppm] | Value of H ([2]; 20° C.) [mm Hg/ppm] | Value of H ([2]; 25° C.) [mm Hg/ppm] | dissolved C2 Cl4 content of suspension [5] [ppm] | Solubility in water ([4]; Example 2, very sparingly soluble in water) [ppm]
CC(Cl)(Cl)Cl [1,1,1-Trichloroethane] | 32 | 0.1429 | 100 | 100 | 700 ppm |  |  |  |  | 
ClCCl [Methylene Chlorine] | 9 | 0.0241 |  | 340 | 13,900 ppm | 0.0183 | 0.0241 | 0.0321 |  | 
ClC(Cl)=C(Cl)Cl [Perchloroethylene, perchloroethylene] | 125 | 0.1000 | 14.7 | 15 | 147 ppm | 0.0760 | 0.1000 | 0.1267 | 176 | 150
